We go through 4 compounds from ChEMBL document CHEMBL1201862, “PubChem BioAssay data set” (2004).

Some test systems named below: IGROV-1; T47D; MOLT-4; SW-620; SK-MEL-2; SN12C; MDA-N; UACC-62; SK-MEL-28; OVCAR-4; BT-549; M14; NCI-H226; RXF 393; U-251; HCC 2998; OVCAR-8; HOP-92; ACHN.
Experiment in all cases: DTP human tumour cell line panel, 48 h

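Five compound concentrations were applied to cells in 96-well plates for 48 hours; endpoints were derived by simple linear interpolation of the resulting dose-response curve. GI50 is the concentration that inhibits growth by half.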 The source made the active and inactive calls. Cut-off read from the data, not from the text of the source: active = GI50 up to about 1.1 µM and inactive = higher.

With `O[C@H]1[C@H](O)[C@@H](Cn2nnc(-c3ccccc3)c2-c2ccccc2)OCO[C@@H]1Cn1nnc(-c2ccccc2)c1-c1ccccc1`, the GI50 in the assay on IGROV-1 is 3.65 µM (inactive); with T47D it was 7.98 µM (inactive); in the assay with MOLT-4, 2.7 µM (inactive); in the assay on SW-620, 5.22 µM (inactive); with SK-MEL-2, 3.15 µM (inactive); in the assay with SN12C, 2.36 µM (inactive). For the same compound, the GI50 in the assay with MDA-N was 3.84 µM (inactive); with UACC-62 it was 2.99 µM (inactive); in the assay on SK-MEL-28, 6.18 µM (inactive); in the assay on OVCAR-4 it was 10.5 µM (inactive); in the assay with BT-549, 5.31 µM (inactive); in the assay on M14, 3.37 µM (inactive). In addition, the GI50 with NCI-H226 was 5.9 µM (inactive); with RXF 393, 2.97 µM (inactive); in the assay on U-251 it was 3.73 µM (inactive); with HCC 2998, 2.24 µM (inactive); with OVCAR-8, 4.01 µM (inactive); with HOP-92, 2.83 µM (inactive). Besides, the GI50 in the assay on ACHN was 3.63 µM (inactive).

As to `Cc1c2ccnc(C(=O)NCCN(C)C)c2cc2c3cc(O)ccc3n(C)c12`, the GI50 with IGROV-1 is 0.277 µM (active); in the assay on T47D, 0.321 µM (active); in the assay with MOLT-4, < 0.01 µM (active); with SW-620, 0.0931 µM (active); in the assay on SK-MEL-2, 0.499 µM (active); in the assay with SN12C it was 0.0596 µM (active). Moreover, the GI50 with MDA-N was 0.286 µM (active); in the assay with UACC-62, 0.15 µM (active); in the assay on SK-MEL-28 it was 0.328 µM (active); in the assay with OVCAR-4, 0.537 µM (active); with BT-549, 2.06 µM (inactive); in the assay on M14, 0.215 µM (active). For the same compound, the GI50 with NCI-H226 is 0.177 µM (active); in the assay on RXF 393, 0.29 µM (active); in the assay with U-251 it was 0.0373 µM (active); in the assay with HCC 2998 it was 0.573 µM (active); in the assay on OVCAR-8, 0.1 µM (active); with HOP-92, 0.235 µM (active). Besides, the GI50 with ACHN was 0.0188 µM (active).

As for `C[N+]1(CCC(=O)c2ccccc2)CCC2CCC(C2)C1` (stereo unspecified), the GI50 in the assay with IGROV-1, in the assay on T47D, with MOLT-4, in the assay on SW-620, in the assay with SK-MEL-2 and in the assay with SN12C was > 100 µM (inactive) in each case. Also, the GI50 in the assay with MDA-N, with UACC-62, in the assay on SK-MEL-28, in the assay with OVCAR-4, in the assay on BT-549 and in the assay on M14 was > 100 µM (inactive) in each case. Also, the GI50 with NCI-H226, in the assay on RXF 393, in the assay on U-251, in the assay with HCC 2998, in the assay on OVCAR-8 and with HOP-92 was > 100 µM (inactive) each time. Further, the GI50 in the assay on ACHN is > 100 µM (inactive).

Take `CCOc1ccccc1/N=N/C1C(=O)N(C(=O)CC(=O)Nc2ccccc2C)N=C1C` (stereo unspecified): the GI50 in the assay on IGROV-1 was 45 µM (inactive); with T47D, 51.9 µM (inactive); with MOLT-4, > 100 µM (inactive); with SW-620, > 100 µM (inactive); in the assay on SK-MEL-2 it was 38.4 µM (inactive); in the assay with SN12C it was > 100 µM (inactive). Also, the GI50 in the assay on MDA-N was > 100 µM (inactive); with UACC-62 it was 21.3 µM (inactive); with SK-MEL-28, > 100 µM (inactive); in the assay with OVCAR-4, > 100 µM (inactive); in the assay with BT-549, 65.5 µM (inactive); in the assay on M14, > 100 µM (inactive). Moreover, the GI50 with NCI-H226 is > 100 µM (inactive); with RXF 393, 25.4 µM (inactive); in the assay with U-251, 19.4 µM (inactive); in the assay on HCC 2998 it was > 100 µM (inactive); in the assay on OVCAR-8, 39 µM (inactive); in the assay with HOP-92 it was 17.1 µM (inactive). For the same compound, the GI50 in the assay on ACHN was > 100 µM (inactive).
